Values joined by “and” are separate entries in the source; they are usually repeats but may differ in a detail not shown here. Identical values can stand only once. Like-named read-outs stand apart in the source and are kept apart here.
Tested on: 6C3HED lymphosarcoma
Experiment: animal or person
Assay type: in vivo
Description: The compounds were tested in C3H mice bearing a 6C3HED lymphosarcoma, also known as the Gardner lymphosarcoma (GLS), and in a variety of human tumor xenografts in CD1 nu/nu mice, including CX-1, LX-1, HXGC3, and VRC5. The 6C3HED lymphosarcoma was obtained from the Division of Cancer Treatment, National […] Institute, Tumor Bank, maintained at E. G. and G. Mason Research (Worcester, Mass.). The CX-1 human colon carcinoma and the LX-1 human lung carcinoma xenografts were obtained from the National Cancer Institute. The HXGC3 and VRC5 human colon xenografts were obtained from Dr. P. J. Houghton, St. Jude Children's Hospital in Memphis (see Br. J. Cancer, 37, 213 (1978)). First passage tumor was stored in liquid nitrogen using standard techniques. The transplanted tumor was reestablished from the Tumor Bank every six months or as needed. The tumor was maintained by serial passage twice weekly in C3H mice.
In the procedure the tumor was removed from passage animals and minced into 1- to 3-mm square fragments using sterile techniques. Tumor pieces were checked for sterility using both Antibiotic Medium 1 and Brain Heart Infusion (Difco, Detroit, Mich.). Recipient mice were shaved and tumor pieces were implanted subcutaneously in the auxiliary region by trocar. Drug therapy on the appropriate schedule was initiated on the day after tumor implant for 6C3HED and after a seven (7) day delay for xenografts (or other delay as noted in Table 2). The compound being tested was mixed with 2.5% Emulphor EL620 from GAF Corporation (1:40 dilution in saline). Food and water were provided ad libitium. The drug was administered orally in 0.5 ml of 2.5% Emulphor (unless otherwise indicated). The tumor was measured the day after treatment ended with two dimensional measurements (width and length) of the tumor taken using automated digital calipers interfaced to a microcomputer. Approximate weight for the tumor was calculated using the following formula [Worzalla, J. F., et al., Invest. New Drugs, 8, 241 (1990], (tumor weight in mg)=(width in mm)^2 ×(length in mm)/2.
At least one control group of an equal number of mice was treated with the same volume of 2.5% Emulphor only. The percent inhibition was determined by subtracting the ratio of the mean tumor size of the test group relative to the control group from one and multiplying the result times 100.
The results of several experiments in mice bearing a 6C3HED lymphosarcoma (or other tumor where indicated) when the indicated compounds were administered are provided in Table 2. In Table 2, column 1 gives the Example number of the compound used, column 2 lists the dose level in mg/kg, column 3 provides the percent inhibition of tumor growth, column 4 gives the number of mice which died relative to the total number of animals in the group, column 5 gives the method of administration of the compound, and column 6 gives the dosage schedule. The protocol used with other tumors was the same as with the 6C3HED lymphosarcoma.

[1] = Mus musculus, 6C3HED, po, read-out: % inhibition of tumor growth, oral, 150 mg/kg, BIDX 8
[2] = Mus musculus, 6C3HED, po, read-out: % inhibition of tumor growth, oral, 300 mg/kg, BIDX 8
[3] = Mus musculus, 6C3HED, ip, read-out: % inhibition of tumor growth, IP, 150 mg/kg, DX 8
[4] = Mus musculus, 6C3HED, ip, read-out: % inhibition of tumor growth, IP, 300 mg/kg, DX 8

Question: With CNS(=O)(=NC(=O)Nc1ccc(Cl)cc1)c1ccc(C)c(C)c1 (stereo not shown) [Example 62] as the compound, how does the inhibition in vivo at 25 mg/kg (Mus musculus, 6C3HED, po, read-out: % inhibition of tumor growth, oral, 25 mg/kg, DX 8) read?
Answer: The inhibition in vivo at 25 mg/kg was 98%.

Question: And the inhibition in vivo at 50 mg/kg (Mus musculus, 6C3HED, po, read-out: % inhibition of tumor growth, oral, 50 mg/kg, DX 8)?
Answer: The inhibition in vivo at 50 mg/kg was 99%.

Question: What about the “Tox/Tot (mice which died / total)” value (oral, 25 mg/kg, DX 8) of the same compound?
Answer: The value was 0/10.

Question: What about the “Tox/Tot (mice which died / total)” value (oral, 50 mg/kg, DX 8) of the same compound?
Answer: Its value is 2/10.

Question: What does the source list for NS(=O)(=NC(=O)Nc1ccc(Cl)cc1)c1ccc(Br)cc1 (stereo not shown) [Example 30]?
Answer: inhibition in vivo at 9 mg/kg (Mus musculus, 6C3HED, po, read-out: % inhibition of tumor growth, oral, 9.00 mg/kg, BIDX 8): 4%; inhibition in vivo at 18.75 mg/kg (Mus musculus, 6C3HED, po, read-out: % inhibition of tumor growth, oral, 18.75 mg/kg, BIDX 8): 19%; inhibition in vivo at 37.5 mg/kg (Mus musculus, 6C3HED, po, read-out: % inhibition of tumor growth, oral, 37.5 mg/kg, BIDX 8): 42%; inhibition in vivo at 50 mg/kg (Mus musculus, 6C3HED, po, read-out: % inhibition of tumor growth, oral, 50 mg/kg, BIDX 8): 55%; inhibition in vivo at 75 mg/kg (Mus musculus, 6C3HED, po, read-out: % inhibition of tumor growth, oral, 75 mg/kg, BIDX 8): 67%; inhibition in vivo at 150 mg/kg [1]: 99%; Tox/Tot (mice which died / total) (oral, 9.00 mg/kg, BIDX 8): 0/10; Tox/Tot (mice which died / total) (oral, 18.75 mg/kg, BIDX 8): 1/10; Tox/Tot (mice which died / total) (oral, 37.5 mg/kg, BIDX 8): 1/10; Tox/Tot (mice which died / total) (oral, 50 mg/kg, BIDX 8): 0/10; Tox/Tot (mice which died / total) (oral, 75 mg/kg, BIDX 8): 0/10; % inhibition of tumor growth (oral, 150 mg/kg, BIDX 8): 89%; Tox/Tot (mice which died / total) (oral, 150 mg/kg, BIDX 8): 3/10 and 1/10; % inhibition of tumor growth (oral, 300 mg/kg, BIDX 8): TOX; Tox/Tot (mice which died / total) (oral, 300 mg/kg, BIDX 8): 10/10

Question: CCCCCCNS(=O)(=NC(=O)Nc1ccc(Cl)cc1)c1ccc(C)cc1 (stereo not shown) [Example 9] was tested. Which inhibition in vivo at 150 mg/kg [1] did it give?
Answer: Its inhibition in vivo at 150 mg/kg is 65%.

Question: And the inhibition in vivo at 300 mg/kg [2]?
Answer: Its inhibition in vivo at 300 mg/kg is 79%.

Question: And the “Tox/Tot (mice which died / total)” value (oral, 150 mg/kg, BIDX 8)?
Answer: The value was 0/10.

Question: What about the “Tox/Tot (mice which died / total)” value (oral, 300 mg/kg, BIDX 8) of the same compound?
Answer: The value was 2/10.

Question: What does the source list for Cc1cc(S(N)(=O)=NC(=O)Nc2ccc(Cl)cc2)cc(C)c1Cl (stereo not shown) [Example 61]?
Answer: Tox/Tot (mice which died / total) (IP, 150 mg/kg, DX 8): 2/10; % inhibition of tumor growth (IP, 300 mg/kg, DX 8): TOX; Tox/Tot (mice which died / total) (IP, 300 mg/kg, DX 8): 10/10; inhibition in vivo at 150 mg/kg [3]: 72%; inhibition in vivo at 150 mg/kg [1]: 0%; inhibition in vivo at 300 mg/kg [2]: 0%; Tox/Tot (mice which died / total) (oral, 150 mg/kg, BIDX 8): 0/10; Tox/Tot (mice which died / total) (oral, 300 mg/kg, BIDX 8): 0/10

Question: What does the source list for CNS(=O)(=NC(=O)N(C)c1ccc(Cl)cc1)c1ccc(C)cc1 (stereo not shown) [Example 65]?
Answer: inhibition in vivo at 150 mg/kg [1]: 91%; inhibition in vivo at 300 mg/kg [2]: 97%; Tox/Tot (mice which died / total) (oral, 150 mg/kg, BIDX 8): 0/10; Tox/Tot (mice which died / total) (oral, 300 mg/kg, BIDX 8): 0/10

Question: How did the “Tox/Tot (mice which died / total)” value (IP, 150 mg/kg, DX 8) turn out when CCN=S(=O)(NC(=O)Nc1ccc(Cl)cc1)c1ccc(C)cc1 (stereo not shown) [Example 4, N-[[(4-chlorophenyl)amino]carbonyl]-N'-ethyl-4-methylbenzenesulfonimidamide] was run?
Answer: Its value is 0/10.

Question: What about the “Tox/Tot (mice which died / total)” value (IP, 300 mg/kg, DX 8) of the same compound?
Answer: Its value is 0/10.

Question: What about the inhibition in vivo at 150 mg/kg [3] of the same compound?
Answer: Its inhibition in vivo at 150 mg/kg is 10%.

Question: What about the inhibition in vivo at 300 mg/kg [4] of the same compound?
Answer: The inhibition in vivo at 300 mg/kg was 18%.

Question: And the inhibition in vivo at 150 mg/kg [1]?
Answer: Its inhibition in vivo at 150 mg/kg is 87%.

Question: And the inhibition in vivo at 300 mg/kg [2]?
Answer: The inhibition in vivo at 300 mg/kg was 96%.

Question: And the “Tox/Tot (mice which died / total)” value (oral, 150 mg/kg, BIDX 8)?
Answer: Its value is 0/10.

Question: And the “Tox/Tot (mice which died / total)” value (oral, 300 mg/kg, BIDX 8)?
Answer: Its value is 0/10.

Question: For N=S(=O)(NC(=O)Nc1ccc(Cl)cc1)c1ccc2c(c1)CCC2 (stereo not shown) [Example 54, N-[[(4-chlorophenyl)amino]carbonyl]-5-indanylsulfonimidamide], which “Tox/Tot (mice which died / total)” value (IP, 12.5 mg/kg, BIDX 8) is on record?
Answer: The value was 0/10.

Question: And the “Tox/Tot (mice which died / total)” value (IP, 25 mg/kg, BIDX 8)?
Answer: Its value is 0/10.

Question: What about the “Tox/Tot (mice which died / total)” value (IP, 50 mg/kg, BIDX 8) of the same compound?
Answer: The value was 0/10.

Question: What about the “Tox/Tot (mice which died / total)” value (IP, 100 mg/kg, BIDX 8) of the same compound?
Answer: Its value is 0/10.

Question: What about the “Tox/Tot (mice which died / total)” value (IP, 150 mg/kg, DX 8) of the same compound?
Answer: The value was 1/10.

Question: What about the “Tox/Tot (mice which died / total)” value (IP, 300 mg/kg, DX 8) of the same compound?
Answer: The value was 3/10.

Question: What about the “Tox/Tot (mice which died / total)” value (IV, 12.5 mg/kg, DX 8) of the same compound?
Answer: Its value is 0/10.

Question: What about the “Tox/Tot (mice which died / total)” value (IV, 25 mg/kg, DX 8) of the same compound?
Answer: Its value is 0/10.

Question: What about the inhibition in vivo at 12.5 mg/kg (Mus musculus, 6C3HED, ip, read-out: % inhibition of tumor growth, IP, 12.5 mg/kg, BIDX 8) of the same compound?
Answer: The inhibition in vivo at 12.5 mg/kg was 6%.

Question: What about the inhibition in vivo at 25 mg/kg (Mus musculus, 6C3HED, ip, read-out: % inhibition of tumor growth, IP, 25 mg/kg, BIDX 8) of the same compound?
Answer: The inhibition in vivo at 25 mg/kg was 30%.

Question: And the inhibition in vivo at 50 mg/kg (Mus musculus, 6C3HED, ip, read-out: % inhibition of tumor growth, IP, 50 mg/kg, BIDX 8)?
Answer: The inhibition in vivo at 50 mg/kg was 44%.

Question: What about the inhibition in vivo at 100 mg/kg (Mus musculus, 6C3HED, ip, read-out: % inhibition of tumor growth, IP, 100 mg/kg, BIDX 8) of the same compound?
Answer: Its inhibition in vivo at 100 mg/kg is 70%.

Question: And the inhibition in vivo at 150 mg/kg [3]?
Answer: The inhibition in vivo at 150 mg/kg was 86%.

Question: What about the inhibition in vivo at 300 mg/kg [4] of the same compound?
Answer: The inhibition in vivo at 300 mg/kg was 94%.

Question: What about the inhibition in vivo at 12.5 mg/kg (Mus musculus, 6C3HED, iv, read-out: % inhibition of tumor growth, IV, 12.5 mg/kg, DX 8) of the same compound?
Answer: Its inhibition in vivo at 12.5 mg/kg is 3%.

Question: And the inhibition in vivo at 25 mg/kg (Mus musculus, 6C3HED, iv, read-out: % inhibition of tumor growth, IV, 25 mg/kg, DX 8)?
Answer: Its inhibition in vivo at 25 mg/kg is 19%.

Question: And the inhibition in vivo at 150 mg/kg [1]?
Answer: The inhibition in vivo at 150 mg/kg was 22%.

Question: What about the inhibition in vivo at 300 mg/kg [2] of the same compound?
Answer: The inhibition in vivo at 300 mg/kg was 33%.

Question: What about the inhibition in vivo at 600 mg/kg (Mus musculus, 6C3HED, po, read-out: % inhibition of tumor growth, oral, 600 mg/kg, DX 8) of the same compound?
Answer: Its inhibition in vivo at 600 mg/kg is 34%.

Question: What about the “Tox/Tot (mice which died / total)” value (oral, 150 mg/kg, BIDX 8) of the same compound?
Answer: Its value is 0/10.

Question: What about the “Tox/Tot (mice which died / total)” value (oral, 150 mg/kg, DX 8) of the same compound?
Answer: The value was 0/10.

Question: And the “Tox/Tot (mice which died / total)” value (oral, 300 mg/kg, BIDX 8)?
Answer: Its value is 0/10.

Question: And the “Tox/Tot (mice which died / total)” value (oral, 300 mg/kg, DX 8)?
Answer: Its value is 0/10.

Question: What about the “Tox/Tot (mice which died / total)” value (oral, 600 mg/kg, DX 8) of the same compound?
Answer: Its value is 0/10.
